In brackets after ≈: the same amount, converted by molar mass. Where two headings read alike, the source gives them in different places.
Experiments:
[1] = tested on: Pseudomonas aeruginosa; experiment: In-vitro antibacterial test, agar dilution MIC; assay type: cell-based; conditions: for MIC: Pseudomonas aeruginosa, read-out: In-vitro MIC
Text: (§4) The test bacterial strains were the standard quality control test strains of Klebsiella pneumoniae strains (Strains No. CMCC 46114-8), Pseudomonas aeruginosa (Strains No. ATCC 27853), Escherichia coli (Strains No. ATCC25922), and Staphylococcus aureus cocci (Strains No. ATCC25925). Other bacteria included those isolated from sputum, throat swab or urine of patients with acute bacterial respiratory tract infection or urinary tract infection and identified by the hospitals.
(§5) HCl levofloxacin injection and NaCl ciprofloxacin lactate injection were diluted with sterilized distilled water to a concentration of 1920 μg/mL.

[2] = tested on: Staphylococcus aureus; experiment: In-vitro antibacterial test, agar dilution MIC; assay type: cell-based; conditions: for MIC: Staphylococcus aureus, read-out: In-vitro MIC
Text: as §4, §5

[3] = tested on: Escherichia coli; experiment: In-vitro antibacterial test, agar dilution MIC; assay type: cell-based; conditions: for MIC: Escherichia coli, read-out: In-vitro MIC
Text: as §4, §5

[4] = tested on: Klebsiella pneumoniae; experiment: In-vitro antibacterial test, agar dilution MIC; assay type: cell-based; conditions: for MIC: Klebsiella pneumoniae
Text: as §4, §5

[5] = tested on: Vibrio cholerae; experiment: In-vitro antibacterial test, agar dilution MIC; assay type: cell-based; conditions: for In-vitro MIC: agar dilution; for MIC: Vibrio cholerae, read-out: In-vitro MIC
Text: as §4, §5

[6] = tested on: Klebsiella pneumoniae, Pseudomonas aeruginosa, Staphylococcus aureus, Escherichia coli, Enterococcus faecalis, Streptococcus pneumoniae, Enterobacter cloacae …; experiment: In-vitro antibacterial tests, summary over the tested bacteria; assay type: cell-based; conditions: for antibacterial activity (in words): against the eight tested bacteria
Experimental: (§1) Test method: the agar dilution method was used for the minimum inhibitory concentration (MIC) determination. The antibacterial chemicals were mixed with given amounts of agar in various concentrations and the mixtures were made into solid plates. Each plate had the antibacterial concentration two times higher than the next plate. Bacteria species were then added to the surface of the plates, cultured, and observed for their growth.
(§2) Other bacteria included those isolated from sputum, throat swab or urine of patients with acute bacterial respiratory tract infection or urinary tract infection and identified by the hospitals.
(§3) (S)-6-fluoro-1-methyl-4-oxo-7-(1-piperazinyl)-1H,4H-[1,3]thiazeto[3,2-a]quino line-3-carboxylic acid lactate and other test samples, equivalent to 96 mg of ulifloxacin, were dissolved in sterilized distilled water to make up 50 mL of each solution.

[7] = Solubility test: maximum solubility in water; assay type: physicochemical; conditions: thermodynamic from solid
Experimental: Three lots of mesylates and three lots of lactates, respectively, were subjected to preliminary tests for maximum solubility in water. At ambient temperature (25° C.), 0.2 g of sample was dissolved in 1 mL of water. To the solution was added 0.1 g of the sample each time until the sample could no longer be dissolved. The amount of sample dissolved was the maximum solubility.

[8] = tested on: Enterococcus faecalis; experiment: In-vitro antibacterial test, agar dilution MIC; assay type: cell-based; conditions: read-out: In-vitro MIC
Text: as §4, §5

[9] = tested on: Streptococcus pneumoniae; experiment: In-vitro antibacterial test, agar dilution MIC; assay type: cell-based; conditions: for MIC: Streptococcus pneumoniae, read-out: In-vitro MIC
Experimental: as §1, §2, §3

[10] = tested on: Enterobacter cloacae; experiment: In-vitro antibacterial test, agar dilution MIC; assay type: cell-based; conditions: read-out: In-vitro MIC
Text: as §4, §5

[11] = maximum solubility in water, ambient temperature (25° C.), average of two tests, preliminary, read-out: Water Solubility

Work on C[C@H]1COc2c(N3CCN(C)CC3)c(F)cc3c(=O)c(C(=O)O)cn1c23 [Levofloxacin, reference compound] yielded an MIC ([1]; agar dilution) of 2 µg/mL (≈ 5.53 µM), an MIC ([2]; agar dilution) of 0.5 µg/mL (≈ 1.38 µM) and an MIC ([3]; agar dilution) of 0.0313 µg/mL (≈ 0.0866 µM). For the same compound, the MIC [4] was 0.0125 µg/mL (≈ 0.0346 µM).

For “(R)-6-fluoro-1-methyl-4-oxo-7-(1-piperazinyl)-1H,4H-[1,3]thiazeto[3,2-a]quinoline-3-carboxylic acid gluconate [Compound 10]”, the “In-vitro MIC” value ([1]; agar dilution) was 1 µg/mL, the “In-vitro MIC” value ([2]; agar dilution) was 1 µg/mL and the “In-vitro MIC” value ([3]; agar dilution) was 0.25 µg/mL. The “In-vitro MIC” value [4] was 0.5 µg/mL and the “In-vitro MIC” value [5] was 2 µg/mL.

With “(±)-6-fluoro-1-methyl-4-oxo-7-(1-piperazinyl)-1H,4H-[1,3]thiazeto[3,2-a]quinoline-3-carboxylic acid gluconate [Ulifloxaci gluconate (±), reference compound]” the “In-vitro MIC” value ([1]; agar dilution) was 0.5 µg/mL, the “In-vitro MIC” value ([2]; agar dilution) was 0.5 µg/mL and the “In-vitro MIC” value ([3]; agar dilution) was 0.05 µg/mL. For the same compound, the “In-vitro MIC” value [4] was 0.2 µg/mL and the “In-vitro MIC” value [5] was 0.5 µg/mL.

With “(S)-6-fluoro-1-methyl-4-oxo-7-(1-piperazinyl)-1H,4H-[1,3]thiazeto[3,2-a]quinoline-3-carboxylic acid aspartate [Compound 7]” the “In-vitro MIC” value ([1]; agar dilution) was 0.25 µg/mL, the “In-vitro MIC” value ([2]; agar dilution) was 0.25 µg/mL and the “In-vitro MIC” value ([3]; agar dilution) was 0.02 µg/mL. The “antibacterial activity (in words)” value [6] was “relatively strong antibacterial activity”.

For CC1Sc2c(C(=O)O)c(=O)c3cc(F)c(N4CCNCC4)cc3n21.CS(=O)(=O)O (racemic) [Ulifloxaci mesylate (±), (±)-6-fluoro-1-methyl-4-oxo-7-(1-piperazinyl)-1H,4H-[1,3]thiazeto[3,2-a]quinoline-3-carboxylic acid mesylate, reference compound], the solubility ([7]; 25 °C, water) was 340 mg/mL, the MIC ([2]; agar dilution) was 0.5 µg/mL and the MIC [8] was 1.5 µg/mL. The MIC [9] was 0.088 µg/mL, the MIC [3] was 0.063 µg/mL and the MIC [4] was 0.2 µg/mL. It also gave an MIC ([10]; agar dilution) of 1 µg/mL and an MIC [5] of 0.5 µg/mL.

For “(R)-6-fluoro-1-methyl-4-oxo-7-(1-piperazinyl)-1H,4H-[1,3]thiazeto[3,2-a]quinoline-3-carboxylic acid glutamate [Compound 12]”, the “In-vitro MIC” value ([2]; agar dilution) was 2 µg/mL, the “In-vitro MIC” value ([9]; agar dilution) was 0.5 µg/mL and the “In-vitro MIC” value ([3]; agar dilution) was 0.5 µg/mL.

CC(O)C(=O)O.CC1Sc2c(C(=O)O)c(=O)c3cc(F)c(N4CCNCC4)cc3n21 (racemic) [Ulifloxaci lactate (±), (±)-6-fluoro-1-methyl-4-oxo-7-(1-piperazinyl)-1H,4H-[1,3]thiazeto[3,2-a]quinoline-3-carboxylic acid lactate, reference compound] gave a solubility [7, 11] of 106 mg/mL, an MIC [2] of 0.25 µg/mL and an MIC ([8]; agar dilution) of 2 µg/mL. The MIC [9] was 0.1 µg/mL, the MIC [3] was 0.125 µg/mL and the MIC [10] was 1.25 µg/mL.

With C[C@@H]1Sc2c(C(=O)O)c(=O)c3cc(F)c(N4CCNCC4)cc3n21 [Compound 2, (S)-6-fluoro-1-methyl-4-oxo-7-(1-piperazinyl)-1H,4H-[1,3]thiazeto[3,2-a]quinoline-3-carboxylic acid] the MIC ([1]; agar dilution) was 0.177 µg/mL (≈ 0.507 µM), the MIC ([2]; agar dilution) was 0.177 µg/mL (≈ 0.507 µM) and the MIC ([9]; agar dilution) was 0.025 µg/mL (≈ 0.0716 µM). For the same compound, the MIC ([3]; agar dilution) was 0.0125 µg/mL (≈ 0.0358 µM), the MIC ([10]; agar dilution) was 0.5 µg/mL (≈ 1.43 µM) and the “antibacterial activity relative to R-ulifloxacin” value [6] was 3 to 10 times. For the same compound, the “antibacterial activity relative to racemic ulifloxacin” value [6] was “two or more times” and the “antibacterial activity (in words)” value [6] was “relatively strong antibacterial activity”.

With “(S)-6-fluoro-1-methyl-4-oxo-7-(1-piperazinyl)-1H,4H-[1,3]thiazeto[3,2-a]quinoline-3-carboxylic acid glutamate [Compound 8]” the “In-vitro MIC” value ([2]; agar dilution) was 0.25 µg/mL, the “In-vitro MIC” value ([9]; agar dilution) was 0.125 µg/mL and the “In-vitro MIC” value ([3]; agar dilution) was 0.01 µg/mL. The “antibacterial activity (in words)” value [6] was “relatively strong antibacterial activity”.

For “(±)-6-fluoro-1-methyl-4-oxo-7-(1-piperazinyl)-1H,4H-[1,3]thiazeto[3,2-a]quinoline-3-carboxylic acid glutamate [Ulifloxaci glutamate (±), reference compound]”, the “In-vitro MIC” value ([2]; agar dilution) was 0.5 µg/mL, the “In-vitro MIC” value ([9]; agar dilution) was 0.2 µg/mL and the “In-vitro MIC” value ([3]; agar dilution) was 0.125 µg/mL.

With CS(=O)(=O)O.C[C@H]1Sc2c(C(=O)O)c(=O)c3cc(F)c(N4CCNCC4)cc3n21 [Compound 9, (R)-6-fluoro-1-methyl-4-oxo-7-(1-piperazinyl)-1H,4H-[1,3]thiazeto[3,2-a]quinoline-3-carboxylic acid mesylate] the solubility ([7]; 25 °C, water) was 501 mg/mL, the MIC [1] was 1 µg/mL and the MIC ([2]; agar dilution) was 2 µg/mL. It also gave an MIC [8] of 4 µg/mL, an MIC [9] of 0.125 µg/mL and an MIC [4] of 0.5 µg/mL. The MIC ([10]; agar dilution) was 4 µg/mL and the MIC [5] was 2 µg/mL.

With “(±)-6-fluoro-1-methyl-4-oxo-7-(1-piperazinyl)-1H,4H-[1,3]thiazeto[3,2-a]quino line-3-carboxylic acid aspartate [Ulifloxaci aspartate (±), reference compound]” the “In-vitro MIC” value ([1]; agar dilution) was 0.5 µg/mL, the “In-vitro MIC” value ([2]; agar dilution) was 0.5 µg/mL and the “In-vitro MIC” value ([3]; agar dilution) was 0.1 µg/mL.

With CC(O)C(=O)O.C[C@H]1Sc2c(C(=O)O)c(=O)c3cc(F)c(N4CCNCC4)cc3n21 [Compound 13, (R)-6-fluoro-1-methyl-4-oxo-7-(1-piperazinyl)-1H,4H-[1,3]thiazeto[3,2-a]quinoline-3-carboxylic acid lactate] the solubility [7, 11] was 116 mg/mL, the MIC [1] was 1 µg/mL and the MIC [2] was 1 µg/mL. The MIC ([8]; agar dilution) was 4 µg/mL, the MIC [9] was 0.125 µg/mL and the MIC [3] was 0.25 µg/mL.

In the case of “(R)-6-fluoro-1-methyl-4-oxo-7-(1-piperazinyl)-1H,4H-[1,3]thiazeto[3,2-a]quinoline-3-carboxylic acid aspartate [Compound 11]”, the “In-vitro MIC” value ([1]; agar dilution) is reported as 1 µg/mL, the “In-vitro MIC” value ([2]; agar dilution) is reported as 2 µg/mL and the “In-vitro MIC” value ([3]; agar dilution) is reported as 0.25 µg/mL.

C[C@H]1Sc2c(C(=O)O)c(=O)c3cc(F)c(N4CCNCC4)cc3n21 [Compound 3, (R)-6-fluoro-1-methyl-4-oxo-7-(1-piperazinyl)-1H,4H-[1,3]thiazeto[3,2-a]quinoline-3-carboxylic acid] showed an MIC ([1]; agar dilution) of 2 µg/mL (≈ 5.72 µM), an MIC ([2]; agar dilution) of 2.83 µg/mL (≈ 8.09 µM) and an MIC ([9]; agar dilution) of 0.25 µg/mL (≈ 0.716 µM). It also gave an MIC ([3]; agar dilution) of 0.225 µg/mL (≈ 0.644 µM) and an MIC ([10]; agar dilution) of 4 µg/mL (≈ 11.4 µM).

O=C(O)c1cn(C2CC2)c2cc(N3CCNCC3)c(F)cc2c1=O [Ciprofloxacin, reference compound] showed an MIC ([1]; agar dilution) of 0.5 µg/mL (≈ 1.51 µM), an MIC ([2]; agar dilution) of 0.5 to 1 µg/mL (≈ 1.51 to 3.02 µM) and an MIC ([3]; agar dilution) of 0.0313 µg/mL (≈ 0.0945 µM). For the same compound, the MIC [4] was 0.0313 to 0.0625 µg/mL (≈ 0.0945 to 0.189 µM).
